Positions of bridges follow the written chain, without caps; N, C: chain ends. No end group written: not given here.

The subject of assay [1] is skin wound. In words: Skin wound healing after back incision. It counts as in vivo, Balb/c mice. Particulars: 10 μL drop-wise into 1-cm sutured incisions once a day. The protocol: 6. Detection of the Wound Healing in […] Skin Promoted by Repair Peptides R1, R2, R3 and R4
Balb/c mice were anesthetized by intra-peritoneal injection with 1% pentobarbital sodium (100 mg/kg), and the back was depilated and disinfected using conventional sterilization methods with 1% iodophor and 75% alcohol. Both sides of the back were cut symmetrically leaving 1-cm incisions. The incisions were sutured with two needles in the sterilized surgery. Then 10 μL of repair peptides R1, R2, R3 and R4 are respectively added drop-wise into the wounds. The wounds were open with no cotton yarn covered. A blank control group treated with PBS solution was set up.

The subject of assay [2] is chick embryo chorioallantoic membrane. Briefly: Angiogenesis in chick embryo chorioallantoic membrane, R1-R4 at the same concentration. The format is in vivo. Particulars: 100 μL at 100 ng/mL, three days culture. The protocol: 5. Detection of the Angiogenesis in the Chick Embryo Chorioallantoic Membrane Promoted by Repair Peptides R1, R2, R3 and R4
A fertilized egg cultured for 5 days was placed with the bigger head of the egg up, then the eggshell was removed. 100 μL of repair peptides R1, R2, R3 and R4 at concentration of 100 ng/mL was respectively added drop-wise into the exposed chick embryo chorioallantoic membrane, and the opening was sealed with clean filter paper. A blank control group treated with PBS solution was set up. Further cultured for three days, then the chick embryo chorioallantoic membrane was peeled off, observed under a stereoscope and photographed, and the image was analyzed by using the software, ImageJ plus.

Assay [3] relates to mouse fibroblasts Balb/c 3T3. Briefly: Proliferation-promoting effect on fibroblasts Balb/c 3T3, CCK-8 method. The format is cell-based. To be noted: 24 hours treatment. The protocol: 2. Detection of the Proliferation-Promoting Effects of Repair Peptides R1, R2, R3 and R4, and the bFGF Respectively on Fibroblasts Balb/c 3T3 by Using the CCK-8 Method
The Ballb/c 3t3 cells were plated in 96-well plates at 4000 cells per well. After the cells were adhered and then starved for 24 hours, the cells were treated for 24 hours with the repair peptides R1, R2, R3 or R4, or the bFGF respectively at concentrations increased by 5 times. After that, the cells were treated with a CCK-8 reagent, and the optical density (OD) value of each well was detected by an enzyme-labeled instrument.
On the technique in general: Tetrazolium dyes change colour on reduction, which living cells bring about.

The subject of assay [4] is human umbilical vein endothelial cells (HUVEC). In words: Proliferation-promoting effect on HUVEC, CCK-8 method. The format is cell-based. To be noted: 24 hours treatment. The protocol: 3. Detection of the Proliferation-Promoting Effects of Repair Peptides R1, R2, R3 and R4, and the bFGF Respectively on Human Umbilical Vein Endothelial Cells (HUVEC) by Using the CCK-8 Method
The HUVEC cells were plated in 96-well plates at 4000 cells per well. After the cells were adhered and then starved for 24 hours, the cells were treated for 24 hours with repair peptides R1, R2, R3 or R4, or the bFGF respectively at concentrations increased by 5 times. After that, the cells were treated with a CCK-8 reagent, and the OD value of each well was detected by an enzyme-labeled instrument.

In assay [5] the test system is chick embryo chorioallantoic membrane. In words: Angiogenesis in chick embryo chorioallantoic membrane, R1 at increasing concentrations. Particulars: 10 μL at concentrations increased by 25 times, three days culture. The format is in vivo. The protocol:
4. Angiogenesis in the Chick Embryo Chorioallantoic Membrane Promoted by the Repair Peptide R1
A fertilized egg cultured for 5 days was placed with the bigger head of the egg up. The eggshell was removed, and a silica gel ring was placed in the middle of the exposed chick embryo chorioallantoic membrane. 10 μL of the repair peptide R1 at concentrations increased by 25 times was respectively added drop-wise into the silica gel ring, and the opening was sealed with clean filter paper. A blank control group treated with PBS solution was set up. Further cultured for three days, then the chick embryo chorioallantoic membrane was peeled off, observed under a stereoscope and photographed, and the image was analyzed by using the software, ImageJ plus.

Assay [6] has as its target FGFR2 (Homo sapiens, UniProt P21802). In words: Affinity to FGFR2 by isothermal titration calorimetry (ITC). It counts as binding. To be noted: for Kd: read-out: dissociation constant Kd with FGFR2. From the text: 1. Detection of the Affinity Between the Repair Peptide R1 and FGFR2 by Using the ITC Method
(The K denoted the affinity constant, and the Kd denoted the dissociation constant. The larger the K was and the smaller the Kd was, the stronger the affinity was).
For orientation: Isothermal titration calorimetry measures the heat released or taken up as one component is titrated into another.

Setting [7] is: lower concentration groups (≤0.16 μM).

FGFR2, sequence (P21802 22-821, species assumed): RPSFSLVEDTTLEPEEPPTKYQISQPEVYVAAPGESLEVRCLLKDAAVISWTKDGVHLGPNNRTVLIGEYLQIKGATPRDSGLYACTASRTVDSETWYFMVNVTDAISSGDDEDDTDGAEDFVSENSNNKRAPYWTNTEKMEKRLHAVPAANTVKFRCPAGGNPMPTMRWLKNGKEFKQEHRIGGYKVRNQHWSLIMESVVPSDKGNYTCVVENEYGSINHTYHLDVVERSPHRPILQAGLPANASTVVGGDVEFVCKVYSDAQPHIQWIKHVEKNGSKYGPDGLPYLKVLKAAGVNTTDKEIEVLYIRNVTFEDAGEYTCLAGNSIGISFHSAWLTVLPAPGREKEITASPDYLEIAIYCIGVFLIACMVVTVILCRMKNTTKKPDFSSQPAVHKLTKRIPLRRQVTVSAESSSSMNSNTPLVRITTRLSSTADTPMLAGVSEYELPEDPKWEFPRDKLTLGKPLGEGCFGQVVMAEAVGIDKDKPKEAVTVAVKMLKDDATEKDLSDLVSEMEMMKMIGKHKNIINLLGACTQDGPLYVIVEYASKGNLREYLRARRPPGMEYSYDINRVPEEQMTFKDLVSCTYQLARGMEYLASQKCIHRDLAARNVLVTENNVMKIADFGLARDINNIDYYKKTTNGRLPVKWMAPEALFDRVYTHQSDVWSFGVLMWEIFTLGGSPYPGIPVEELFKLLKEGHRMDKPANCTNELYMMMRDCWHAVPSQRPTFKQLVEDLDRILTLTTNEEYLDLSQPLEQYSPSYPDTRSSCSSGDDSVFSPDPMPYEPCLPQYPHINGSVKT

Regarding KVKVGPANVKVKV (R2), the skin wound healing result in assay [1] is “the healing was sped up”. In addition, the “capillaries in the chick embryo chorioallantoic membrane” value (“capillaries” for short) in assay [2] was “significantly increased”. Moreover, the entries for the “proliferation-promoting activity on Balb/c 3T3 (OD, CCK-8)” value in assay [3] (higher concentration groups) and in assay [3] (lower concentration groups) were “still had a proliferation-promoting activity” and “comparable proliferation-promoting activity”, respectively. Moreover, the “proliferation-promoting activity on HUVEC (OD, CCK-8)” value in assay [4] (higher concentration groups) was “still had a proliferation-promoting activity”; in assay [4] (setting [7]), “comparable proliferation-promoting activity”.

As for GPANVET [R1, GPANVET], the skin wound healing result in assay [1] is “the healing was sped up”. Moreover, the “capillaries” value is “significantly increased” in assay [2] and “significantly increased with the increasing dose” in assay [5]. In addition, the “proliferation-promoting activity on Balb/c 3T3 (OD, CCK-8)” value in assay [3] (higher concentration groups) is reported as “still had a proliferation-promoting activity”; in assay [3] (lower concentration groups) it was “comparable proliferation-promoting activity”. Moreover, the “affinity constant K with FGFR2” value in assay [6] is 7.35e+08 ± 2.1e+08 M⁻¹. The “affinity to FGFR2 relative to that of bFGF” value in assay [6] (R1-FGFR2 versus bFGF-FGFR2) is on record as “about 4,500 times”. In addition, the dissociation constant (Kd) (as a rule, the constant that tells how readily two partners part at equilibrium) in assay [6] was roughly 0.00137 µM. Moreover, the results for the “proliferation-promoting activity on HUVEC (OD, CCK-8)” value in assay [4] (higher concentration groups) and in assay [4] (setting [7]) were “still had a proliferation-promoting activity” and “comparable proliferation-promoting activity”, respectively.

Consider “bFGF: recombinant basic Fibroblast Growth Factor (155 amino acids), clinically applied to wounds and burns”, for which the “proliferation-promoting activity on Balb/c 3T3 (OD, CCK-8)” value is “cell proliferation was inhibited” in assay [3] (higher concentration groups) and “comparable proliferation-promoting activity” in assay [3] (lower concentration groups). For the same substance, the “affinity constant K with FGFR2” value in assay [6] amounted to 162000 ± 25000 M⁻¹. The Kd in assay [6] is roughly 6.17 µM. Besides, the “proliferation-promoting activity on HUVEC (OD, CCK-8)” value is “cell proliferation was inhibited” in assay [4] (higher concentration groups) and “comparable proliferation-promoting activity” in assay [4] (setting [7]).

For the substance “CGPANVETC (disulfide 1-9 (inferred)) [R4]”, the skin wound healing entry in assay [1] was “the healing was sped up”. For the same substance, the “capillaries” value in assay [2] was “significantly increased”. Also, the “proliferation-promoting activity on Balb/c 3T3 (OD, CCK-8)” value was “still had a proliferation-promoting activity” in assay [3] (higher concentration groups) and “comparable proliferation-promoting activity” in assay [3] (lower concentration groups). Moreover, the “proliferation-promoting activity on HUVEC (OD, CCK-8)” value in assay [4] (higher concentration groups) is “still had a proliferation-promoting activity”; in assay [4] (setting [7]) it was “comparable proliferation-promoting activity”.

Regarding GPANVEKEKEK (R3), the skin wound healing result in assay [1] is on record as “the healing was sped up”. Further, the “capillaries” value in assay [2] is given as “significantly increased”. The “proliferation-promoting activity on Balb/c 3T3 (OD, CCK-8)” value is listed as “still had a proliferation-promoting activity” in assay [3] (higher concentration groups) and “comparable proliferation-promoting activity” in assay [3] (lower concentration groups). Moreover, the “proliferation-promoting activity on HUVEC (OD, CCK-8)” value is given as “still had a proliferation-promoting activity” in assay [4] (higher concentration groups) and “comparable proliferation-promoting activity” in assay [4] (setting [7]).

The values are drawn from patent US11260101B2, “Repair peptide for use in promoting post-traumatic tissue repair and regeneration, and application thereof” (Jinan University, priority 2017, dated 2022).
